Like-named read-outs stand apart in the source and are kept apart here.
Experiments:
[1] = test system: SARS-CoV-2 infected Vero E6 TMPRSS2+ cells; assay: Live cell number (cytopathic effect) quantification assay, Viral Tox-Glo; type: cell-based, African Green Monkey; conditions: for rescue of CPE in MTX-treated cells: thymidine or 1 mM formate added to 1 μM MTX, 48 hours
SARS-CoV-2 [2] = assay: Simultaneous Stellaris FISH and immunofluorescence: viral +strand gRNA and nucleocapsid protein (Np); type: cell-based; conditions: for restoration of viral gRNA levels in MTX-treated cells: 10011M thymidine or 1 mM formate added to 1 μM MTX; for restoration of viral gRNA levels in MTX-treated cells / rescue of translation of viral Np in MTX-treated cells: 48 hours; for rescue of translation of viral Np in MTX-treated cells: thymidine or 1 mM formate added to 1 μM MTX
SARS-CoV-2 [3] = type: cell-based; conditions: for rescue of virion production in MTX-treated cells: thymidine or 1 mM formate added to 1 μM MTX, 48 hours
RNA flavivirus Zika = conditions: cited from earlier work

O=C(COc1ccc(Cl)cc1)NC1CCC(NC(=O)COc2ccc(Cl)cc2)CC1 (centres unmarked) [ISRIB]
number of live cells [1]: increased the number of live cells | Np expression (SARS-CoV-2 [2]): did not appreciably diminish | viral gRNA expression (SARS-CoV-2 [2]): did not appreciably diminish

Cc1n[nH]c2c1C(c1cc(CO)cc(-c3ccccc3)c1)(C(C)C)C(C#N)=C(N)O2 (centres unmarked) [SHIN1]
viral CPE [1]: induced resistance to viral CPE | reduction of infectious virus titer (SARS-CoV-2 [3]): ~1 log | +strand gRNA levels (SARS-CoV-2 [2]): diminished | nucleoprotein levels (SARS-CoV-2 [2]): diminished

Cc1cn([C@H]2C[C@H](O)[C@@H](CO)O2)c(=O)[nH]c1=O [thymidine]
rescue of CPE in MTX-treated cells [1]: unable to rescue | rescue of virion production in MTX-treated cells (SARS-CoV-2 [3]): unable to rescue | restoration of viral gRNA levels in MTX-treated cells (SARS-CoV-2 [2]): could only partially restore | rescue of translation of viral Np in MTX-treated cells (SARS-CoV-2 [2]): unable to rescue

C/C=C(\C)[C@H](O)[C@H](C)/C=C(C)/C=C/C/C(C)=C/Cc1nc(OC)c(OC)c(O)c1C [Piericidin A]
viral CPE [1]: reduced viral CPE | secreted virus levels (SARS-CoV-2 [3]): did not have a major impact | secreted virus levels (SARS-CoV-2 [3]; listed as PierA): did not reduce viral replication | Np levels (SARS-CoV-2 [2]): did not have a major impact | viral gRNA levels (SARS-CoV-2 [2]): did not have a major impact

CN(Cc1cnc2nc(N)nc(N)c2n1)c1ccc(C(=O)N[C@@H](CCC(=O)O)C(=O)O)cc1 [methotrexate]
virus-induced CPE [1]: significantly blocked virus-induced CPE | diminished secretion of infectious virion (SARS-CoV-2 [3]): ~2 log | Np levels (SARS-CoV-2 [2]): reduced | viral gRNA levels (SARS-CoV-2 [2]): reduced | replication of the RNA flavivirus Zika (RNA flavivirus Zika): impair replication

O=C[O-].[Na+] [formate, sodium formate]
rescue of CPE in MTX-treated cells [1]: unable to rescue | reversal of SHIN1 effects (virus titer, gRNA, nucleoprotein, CPE) (SARS-CoV-2 [3]; 1 mM formate added to 10 μM SHIN1, 48 hours): fully reversed | rescue of virion production in MTX-treated cells (SARS-CoV-2 [3]): unable to rescue | restoration of viral gRNA levels in MTX-treated cells (SARS-CoV-2 [2]): could only partially restore | rescue of translation of viral Np in MTX-treated cells (SARS-CoV-2 [2]): unable to rescue

CCCCS(=N)(=O)CCC(N)C(=O)O [BSO, L-buthionine-sulfoximine]
Np levels (SARS-CoV-2 [2]): did not have any apparent effect | viral gRNA levels (SARS-CoV-2 [2]): did not have any apparent effect

O=c1[nH]cnc2nc[nH]c12 [hypoxanthine]
reversal of all effects of MTX (CPE, gRNA, Np, infectious virion) (SARS-CoV-2 [3]): could be reversed

Reference: patent US20240041851A1 (priority 2020, published 2024)
